Numbered stars: 1 amine (or outer) side, 2 acyl side, 3 side chain; on linkers, the order of the positions; unused ones are H or OH. Bridge positions count the residues as written; N and C are the ends. Square brackets hold non-standard residues; d marks the D form. Side chains are listed from the residue outwards. Ends that are not written are not given here. * marks the point of attachment. C18 diacid = O=C(O)CCCCCCCCCCCCCCCCC(=O)*; γGlu = O=C(O)[C@H](CCC(=O)[*:2])N[*:1]; αMeF = C[C@](N)(Cc1ccccc1)C(=O)O
Key:
DIO rats = assay: Example 7: 28-day LAA and GLP/GIP dual agonist study; format: in vivo, rat
Description: Study Design: Male rats were fed a high-fat diet (45% kcal fat-D12451; Research Diets) or chow control matched diet (10% kcal fat-D12450K; […] Control rats were dosed SC with Vehicle. Body weight was monitored daily through-out study and body composition measured by EchoMRI at baseline (week-1) and end of study (week 4). […]

[1] = tested on: High-fat diet (DIO) fed rats; assay: Example 9: 4-week LAA or DACRA monotherapy in DIO rats; format: in vivo, rat; settings: for BW reduction compared to vehicle / reduction of cumulative food intake: 4 weeks
Excerpt: Study 1 Design: High-fat diet (DIO) fed rats were used to profile LAA or DACRA monotherapy to evaluate food intake, body weight-lowering and body composition effects in a 4-week study. In this experiment, the LAA was that of SEQ ID NO: 11 and the DACRA was cagrilintide.

[2] = tested on: DIO male pair-housed rats; assay: Example 3 additional study: 28-day body weight, food intake and organ weights in DIO rats; format: in vivo, rat; settings: 28 days SC daily
Description: Study design: DIO male pair-housed rats fed a 32.5% high-fat diet (D12266B) for 7 weeks reached a mean body weight (BW) of ˜595 g. Rats were dosed SC daily for 28 days with vehicle (Vh), GLP-1/GCG dual agonist (1.5 or 5 nmol/kg), LAA (2.5 or 7.5 nmol/kg), or combination (1.5+2.5 nmol/kg, 1.5+7.5 nmol/kg, 5+2.5 nmol/kg, or 5+7.5 nmol/kg, respectively). Food intake (FI) and BW were measured daily. In chow fed lean rats, gastric emptying (GE) was measured via X-ray fluoroscopic quantification following SC injections of Vh, GLP-1/GCG dual agonist at 1, 3, or 10 nmol/kg or LAA at 1, 3, or 10 nmol/kg. In a subsequent acute GE study, lean rats received a single dose of Vh, GLP-1/GCG dual agonist (2 nmol/kg), LAA (2 nmol/kg) or GLP-1/GCG dual agonist+LAA combination (2+2 nmol/kg). In this experiment, the LAA was that of SEQ ID NO: 11, and the GLP-1/GCG dual-agonist was cotadutide.

[3] = molecular target: T1, rat amylin receptor (calcitonin receptor plus RAMP3) (Rattus norvegicus, UniProt P32214+Q9JJ73); assay: Target engagement estimate (unbound Cmax / unbound in vitro potency), amylin receptor; settings: LAA 30 nmol/kg vs DACRA 10 nmol/kg
T1 construct: expressed in transfected cells; host or cells: HEK293
T1 sequence (P32214 25-516): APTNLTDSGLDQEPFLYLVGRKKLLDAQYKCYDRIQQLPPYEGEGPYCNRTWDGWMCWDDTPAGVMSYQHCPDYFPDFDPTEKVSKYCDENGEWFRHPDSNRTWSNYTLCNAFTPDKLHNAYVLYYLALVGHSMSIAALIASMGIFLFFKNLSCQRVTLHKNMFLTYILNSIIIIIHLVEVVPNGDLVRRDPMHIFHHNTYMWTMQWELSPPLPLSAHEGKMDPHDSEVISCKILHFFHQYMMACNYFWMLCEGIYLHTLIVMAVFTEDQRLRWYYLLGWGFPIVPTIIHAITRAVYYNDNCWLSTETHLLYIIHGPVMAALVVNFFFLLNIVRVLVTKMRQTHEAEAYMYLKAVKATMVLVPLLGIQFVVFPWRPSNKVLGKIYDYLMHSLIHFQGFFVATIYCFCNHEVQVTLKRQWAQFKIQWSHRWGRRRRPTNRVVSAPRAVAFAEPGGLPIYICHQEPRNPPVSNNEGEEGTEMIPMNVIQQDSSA
T1 sequence (Q9JJ73 23-147 partner): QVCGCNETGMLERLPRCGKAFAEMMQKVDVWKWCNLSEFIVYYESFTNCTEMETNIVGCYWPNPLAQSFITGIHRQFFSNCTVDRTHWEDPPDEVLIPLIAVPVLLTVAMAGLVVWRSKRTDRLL
Description: Target engagement was estimated in the following way for each compound. The maximum concentration (Cmax) after subcutaneous injection was measured in separate rat pharmacokinetic studies and was dose-adjusted to the tested dose levels when appropriate, assuming dose linearity. Plasma protein binding was determined in vitro using 3B Pharmaceutical's Escalate Equilibrium Shift Assay or an in-house Surface Plasmon Resonance (SPR) assay. Peptide in vitro potency was determined via HTRF CAMP accumulation assay using HEK293 cells recombinantly expressing the rat calcitonin receptor or rat amylin receptor (calcitonin receptor plus RAMP3) in saline buffer containing 0.1% bovine serum albumin. The in vitro potencies (IC50s) for amylin and calcitonin were adjusted to unbound values by taking into account the albumin concentration in the assay and fraction unbound data, according to an established method (Wan H and Bergström F (2007), High Throughput Screening of Drug-Protein Binding in Drug Discovery, Journal of Liquid Chromatography & Related Technologies, 30:5, 681-700; doi: 10.1080/10826070701190989). Finally, the target engagement was calculated as the unbound Cmax divided by the unbound IC50, both for amylin and calcitonin. […] Uncertainty of parameter estimates was determined by bootstrapping, sampling single measurements randomly with replacement within each experiment (N=500). […]

[4] = tested on: diet-induced obese (DIO) Sprague-Dawley rats; assay: Example 2: 28-day combination study in DIO rats (body weight, EchoMRI body composition); format: in vivo, rat; settings: LAA 10 nmol/kg, GLP-1/GCG 5.4 nmol/kg or both
Description: Study Design: Male diet-induced obese (DIO) Sprague-Dawley rats were fed a high fat diet (45% fat, D12451; Research Diets) for 34 weeks prior to study start. […] Research Diets). […] Average body weight for all DIO rats at start of study was 722.4+10.1 grams. Body composition was measured by EchoMRI on day-7 and day 26. In this experiment, the LAA was that of SEQ ID NO: 11, and the GLP-1/GCG dual-agonist was cotadutide. Data reported as mean±standard error of the mean (SEM); data analysis performed using GraphPad Prism-statistical analysis performed using One-way ANOVA with Tukey ad hoc analysis.

amylin receptor engagement, fold more than DACRA [3]: ~28 fold
Substance: K(γE-γE-C18diacid)[CNTATC]ATQRLANFLRHSSNN(αMePhe)GPILPPTEVGSNTY-amide (K([γGlu-γGlu-C18 diacid])CNTATCATQRLANFLRHSSNN[αMeF]GPILPPTEVGSNTY-NH2; disulfide 2-7) [LAA]
body weight change (DIO rats; day 28, mono-treatment 10 nmol/kg SC QD): −5.6%
change in fat mass (g) (DIO rats; end of study (week 4), EchoMRI, FIG. 6C): significant decrease in fat mass
change in lean mass (g) (DIO rats; end of study, EchoMRI, mono-treatment, FIG. 6D): no effect on lean mass
BW reduction compared to vehicle ([1]; 2.5 nmol/kg): −5.2±0.6%
reduction of cumulative food intake ([1]; 2.5 nmol/kg): −14.3±1.2 % of vehicle
BW reduction compared to vehicle ([1]; 10 nmol/kg): −9.7±0.7%
reduction of cumulative food intake ([1]; 10 nmol/kg): −20.9±0.7 % of vehicle
fat-mass loss ([1]; end of study, 10 nmol/kg): -28.0 ± 2.3 g
proportion of body weight loss that was fat-mass specific ([1]; end of study, 10 nmol/kg, FIG. 8C): 100%
lean mass ([1]; end of study, FIG. 8B): Lean mass was preserved in the LAA groups
Vh corrected BW change (BW gain) ([2]; LAA 2.5 nmol/kg): −9.4%
Vh corrected BW change (BW gain) ([2]; LAA 7.5 nmol/kg): −13.7%
Cumulative FI normalized to Vh ([2]; monotherapy and combination groups): decreased in a dose-dependent manner
body weight loss vs Vehicle ([4]; SC QD, FIG. 1A): lost significantly more body weight than Vehicle treated rats
fat mass change (EchoMRI) ([4]; day 26): lost a significant amount of fat mass compared to Vehicle treatment
lean mass change (EchoMRI) ([4]; day 26): little effect on lean mass

From patent publication US20260091086A1, “POLYPEPTIDE COMBINATIONS AND USES THEREOF” (MEDIMMUNE LIMITED, priority 2024, published 2026)
